Species: Rattus norvegicus
Test: Open TG-GATES - Regimen: Daily Repeat
Format: toxicity, organism-based, Sprague-Dawley
Set-up: regimen Daily Repeat, gender Male, age 6 weeks
Conditions: in vivo, po, route gavage; for gamma-GTP / ALP / AST / BUN / CRE / Ca / Cl / DBIL / GLC / IP / K / LDH / Na / PL / RALB / TBIL / TC / TG / TP: tissue Plasma; for APTT / Bas / Eos / Fbg / Hb / Ht / Lym / MCH / MCHC / MCV / Mono / Neu / PT / Plat / RBC / Ret / WBC: tissue Blood; for KIDNEY_L / KIDNEY_R / KIDNEY_TOTAL: tissue Kidney; for LIVER: tissue Liver
[1] = 300 mg/kg, 72 h, dose level Middle, time 3 day
[2] = 300 mg/kg, […], dose level Middle, time 7 day
[3] = 300 mg/kg, […], dose level Middle, time 14 day
[4] = 300 mg/kg, […], dose level Middle, time 28 day

In the case of COc1ccc2[nH]c([S+]([O-])Cc3ncc(C)c(OC)c3C)nc2c1 (centres undefined) [OMEPRAZOLE], the gamma-GTP (100 mg/kg, […], dose level Low, time 28 day) is reported as 0.8 IU/L, the APTT [1] is reported as 19.8 s and the Bas [1] is reported as 0%. It also gave an Eos [1] of 0.8%, a Fbg [1] of 223 mg/dL and a Hb [1] of 13 g/dL. For the same compound, the Ht [1] was 37.9%, the Lym [1] was 81% and the MCH [1] was 20.9 pg. The MCHC [1] was 34.3%, the MCV [1] was 60.9 fL and the Mono [1] was 3.6%. The Neu [1] was 14%, the PT [1] was 12.2 s and the Plat [1] was 135 x10_4/uL. For the same compound, the RBC [1] was 623 x10_4/ul, the Ret [1] was 4.2% and the WBC [1] was 94 x10_2/uL. The KIDNEY_L [1] was 1 g, the KIDNEY_R [1] was 1 g and the KIDNEY_TOTAL [1] was 2.1 g. For the same compound, the LIVER [1] was 12.8 g, the ALP [1] was 925.8 IU/L and the AST [1] was 61.4 IU/L. It also gave a BUN [1] of 14.8 mg/dL, a CRE [1] of 0.4 mg/dL and a Ca [1] of 10.5 mg/dL. It also gave a Cl [1] of 100.8 meq/L, a DBIL [1] of 0.058 mg/dL and a GLC [1] of 220.6 mg/dL. The IP [1] was 8.9 mg/dL, the K [1] was 3.9 meq/L and the LDH [1] was 184.6 IU/L. The Na [1] was 139.8 meq/L, the PL [1] was 175.8 mg/dL and the RALB [1] was 3.4 g/dL. The TBIL [1] was 0.1 mg/dL, the TC [1] was 101.2 mg/dL and the TG [1] was 85 mg/dL. The TP [1] was 5.6 g/dL, the gamma-GTP [1] was 1 IU/L and the TERMINAL_BW [2] was 269.3 g. For the same compound, the TERMINAL_BW [3] was 314.9 g, the TERMINAL_BW [4] was 384.1 g and the APTT [2] was 21.7 s. For the same compound, the Bas [2] was 0%, the Eos [2] was 1% and the Fbg [2] was 216.8 mg/dL. It also gave a Hb [2] of 13.4 g/dL, a Ht [2] of 39.5% and a Lym [2] of 78.8%. The MCH [2] was 20.6 pg, the MCHC [2] was 33.9% and the MCV [2] was 60.8 fL. The Mono [2] was 3%, the Neu [2] was 17.4% and the PT [2] was 12 s. It also gave a Plat [2] of 156.8 x10_4/uL, an RBC [2] of 649.8 x10_4/ul and a Ret [2] of 4.9%. It also gave a WBC [2] of 98.4 x10_2/uL, an APTT [3] of 20.3 s and a Bas [3] of 0%. The Eos [3] was 0.8%, the Fbg [3] was 211.4 mg/dL and the Hb [3] was 13.6 g/dL. It also gave a Ht [3] of 39.2%, a Lym [3] of 83.8% and an MCH [3] of 20 pg. It also gave an MCHC [3] of 34.6%, an MCV [3] of 57.6 fL and a Mono [3] of 2.8%. It also gave a Neu [3] of 11.4%, a PT [3] of 12.2 s and a Plat [3] of 128.3 x10_4/uL. The RBC [3] was 681.4 x10_4/ul, the Ret [3] was 4.2% and the WBC [3] was 96 x10_2/uL. It also gave an APTT [4] of 21.8 s, a Bas [4] of 0% and an Eos [4] of 0.8%. For the same compound, the Fbg [4] was 203 mg/dL, the Hb [4] was 14.5 g/dL and the Ht [4] was 42.2%. For the same compound, the Lym [4] was 80.4%, the MCH [4] was 18.7 pg and the MCHC [4] was 34.3%. For the same compound, the MCV [4] was 54.6 fL, the Mono [4] was 2.4% and the Neu [4] was 15.6%. It also gave a PT [4] of 12.4 s, a Plat [4] of 119.7 x10_4/uL and an RBC [4] of 773.8 x10_4/ul. For the same compound, the Ret [4] was 2.7%, the WBC [4] was 105.1 x10_2/uL and the KIDNEY_L [2] was 1.1 g. It also gave a KIDNEY_R [2] of 1.1 g, a KIDNEY_TOTAL [2] of 2.2 g and a KIDNEY_L [3] of 1.3 g. It also gave a KIDNEY_R [3] of 1.3 g, a KIDNEY_TOTAL [3] of 2.5 g and a KIDNEY_L [4] of 1.4 g. For the same compound, the KIDNEY_R [4] was 1.4 g, the KIDNEY_TOTAL [4] was 2.9 g and the LIVER [2] was 14.5 g. For the same compound, the LIVER [3] was 15.7 g, the LIVER [4] was 18.2 g and the ALP [2] was 924.4 IU/L. For the same compound, the AST [2] was 63.8 IU/L, the BUN [2] was 17.2 mg/dL and the CRE [2] was 0.4 mg/dL. The Ca [2] was 10.8 mg/dL, the Cl [2] was 101.2 meq/L and the DBIL [2] was 0.086 mg/dL. The GLC [2] was 208.6 mg/dL, the IP [2] was 8.8 mg/dL and the K [2] was 3.8 meq/L. For the same compound, the LDH [2] was 248.4 IU/L, the Na [2] was 140.8 meq/L and the PL [2] was 173.8 mg/dL. The RALB [2] was 3.4 g/dL, the TBIL [2] was 0.1 mg/dL and the TC [2] was 89 mg/dL. For the same compound, the TG [2] was 124.8 mg/dL, the TP [2] was 5.8 g/dL and the gamma-GTP [2] was 1 IU/L. It also gave an ALP [3] of 808.4 IU/L, an AST [3] of 62 IU/L and a BUN [3] of 17.2 mg/dL. It also gave a CRE [3] of 0.5 mg/dL, a Ca [3] of 10.5 mg/dL and a Cl [3] of 101.6 meq/L. For the same compound, the DBIL [3] was 0.066 mg/dL, the GLC [3] was 205.4 mg/dL and the IP [3] was 8.3 mg/dL. It also gave a K [3] of 3.9 meq/L, an LDH [3] of 198 IU/L and a Na [3] of 141.4 meq/L. For the same compound, the PL [3] was 162.6 mg/dL, the RALB [3] was 3.6 g/dL and the TBIL [3] was 0.1 mg/dL. For the same compound, the TC [3] was 84.4 mg/dL, the TG [3] was 78.4 mg/dL and the TP [3] was 6 g/dL. The gamma-GTP [3] was 0.8 IU/L, the ALP [4] was 521.6 IU/L and the AST [4] was 56.2 IU/L. It also gave a BUN [4] of 15.6 mg/dL, a CRE [4] of 0.5 mg/dL and a Ca [4] of 10.3 mg/dL. The Cl [4] was 101.6 meq/L, the DBIL [4] was 0.062 mg/dL and the GLC [4] was 221.8 mg/dL. For the same compound, the IP [4] was 7.3 mg/dL, the K [4] was 3.7 meq/L and the LDH [4] was 135 IU/L. It also gave a Na [4] of 141.6 meq/L, a PL [4] of 134.8 mg/dL and an RALB [4] of 3.5 g/dL. The TBIL [4] was 0.1 mg/dL, the TC [4] was 70 mg/dL and the TG [4] was 66 mg/dL. For the same compound, the TP [4] was 6.1 g/dL and the gamma-GTP [4] was 1 IU/L.
